# Where two headings read alike, the source gives them in different places.
# Tests used:
# [1] = test system: person; experiment: Tests for increase the ability of learning and memory; type: in vivo, human; conditions: three pieces of 600 mg, average of four tests before and after ingesting; for change in vivo at 1800 mg: Homo sapiens, po, read-out: Increase rate (%) of memory ability
# Description: A person administrates see a random series of 100 numbers, typed by PC, for 10 minutes and memory it. Then recite and write down the memorized number series. To check the recited series with the original one to see how many numbers are correct. In each testing at least has 10 minutes interval, and repeat four times. […] Each kind of drugs testing is done in half day, morning or afternoon only. The testing results were counted by one correct number for one point. Make the average value of four times testing of before and after drug ingesting, respectively. The increase of learning or memory ability is calculated by following equation and listed in Table 14: Rate of increase of memory ability=[(average value of four time testing before ingesting drug)−(average value of four times testing after ingesting drug)]×100%/(average value of four time testing before ingesting drug)
# [2] = test system: mouse's leaching cell solution (abdominal cavity cells), histamine release by 48/80 compound; experiment: Drug inhibiting effect on histamine leaching from mouse abdominal cavity cells treated with 48/80 compound; type: cell-based; conditions: for IC50 / inhibition at 2 µg/mL / inhibition at 5 µg/mL / inhibition at 10 µg/mL / inhibition at 50 µg/mL / inhibition at 100 µg/mL / inhibition at 300 µg/mL / inhibition at 1000 µg/mL: Mus musculus; for IC50: read-out: IC50 value (concentration for inhibiting rate of 50%)
# Description: This is a comparative testing for drug depressing effect on the amount of leaching histamines when is treated with 48/80 (Sigma, St. MO, USA) compound.
# (1). Preparation of Leaching Cell Solution from Mouse Body.
# A mouse is killed and bloodletting. Then 10 ml of Locke's solution containing 0.1% bovine serum protein is injected into its abdominal cavity. After abdominal cavity being light massaged, the cavity is cut and the Locke's solution is removed. Cavity is washed with another 5 ml of Locke's solution, and this washed solution is added to the latter one. This combined solution is centrifuged at 600 rpm for 5 minutes. The sediments are washed with 5 ml of cool Locke's solution. Adding 3 ml of cold Locke's solution to the washed sediments, then a leached cell solution of abdominal cavity is obtained. (The composition of Locke's solution is: NaCL […], KCL 0.2%, CaCL2 0.15%, glucose 1.0%, in w/v, and the rest distillated water.)
# (2). Drug Inhibiting Effect on the Amount of Leaching Histamines when Treated with 48/80 Compound.
# 1.0 ml of each of those solutions in last term is mixed with 0.3 ml of mouse's leaching cell solution and 0.5 ml of Locke's solution. This mixture is cultivated at 37° C. for 5 minutes. Then adding 0.2 ml of Locke's solution of 48/80 compound (1 mg/100 ml) and cultivated at 37° C. for 10 minutes. Then the reaction is stopped by cooling, and centrifuged at 2,500 rpm for 10 minutes. 1.7 ml of decanted solution and 0.3 ml of sediments are obtained.
# 0.1 ml of water and 0.2 ml of 100% trichloroacetic acid are added to the decanted solution. 1.5 ml of Locke's solution and 0.2 ml of 100% trichloroacetic acid are added to the sediments washed solution. They are cultivated at room temperature for 30 minutes. After cultivation, the mixtures are centrifuged at 3,000 rpm for 15 minutes, respectively. 0.35 ml of each of the former two solutions is sampled. In each sample, 1.65 ml of water, 0.4 ml of 1N NaOH and 0.1 ml of 0.5% OPT (o-phthalic aldehyde) in methanol are added and cultivated at room temperature for 4 minutes. The reaction is stopped by adding 0.2 ml of 2M citric acid. And finally, determine the amount of released histamines in the tested solution by fluorescence method. By the analysis, results of the inhibiting rate of histamines could be calculated.
# Locke's solution is instead of each drug in control group, and instead of both drug and 48/80 compound solution in blank group.
# The histamine releasing rate (A) can be calculated by following equation. […] Where (Hs) is the total amount of histamine in the decanted solution, and (Hr) is the total amount of histamine in the sediment. (A)=[(Hs)/{(Hs)+(Hr)}]×100%. Then the inhibiting rate is:
# =100−[(A−A in blank group)/(A−A in control group)]×100%.
# [3] = adding 5% of coffee extract, calculated by figure
# [4] = testing drug 100 μg/ml, adding 5% of coffee extract, read-out: inhibiting rate (%) (adding 5% of coffee extract)
# [5] = testing drug 100 μg/ml, non adding coffee extract, read-out: Inhibiting rate (%) (non adding coffee extract)
# [6] = dose 2 μg/ml, adding 5% of coffee extract
# [7] = dose 5 μg/ml, adding 5% of coffee extract
# [8] = dose 10 μg/ml, adding 5% of coffee extract
# [9] = dose 50 μg/ml, adding 5% of coffee extract
# [10] = dose 100 μg/ml, adding 5% of coffee extract
# [11] = dose 300 μg/ml, adding 5% of coffee extract
# [12] = dose 1000 μg/ml, adding 5% of coffee extract
# [13] = testing drug 100 μg/ml, adding 5% of coffee extract
# [14] = testing drug 100 μg/ml, non adding coffee extract
compound,measurement,setting,value
O=C(O)/C=C\C(=O)O [Maleic acid],change in vivo at 1800 mg,[1],370%
O=C(O)CCC(=O)O [Succinic acid],IC50,[2]; [3],5.8 µg/mL
same,inhibition at 2 µg/mL,"[2]; dose 2 μg/ml, adding 5% of coffee extract, read-out: Inhibiting rate (%)",24.9%
same,inhibition at 2 µg/mL,"[2]; dose 2 μg/ml, non-adding coffee extract, read-out: Inhibiting rate (%)",17.9%
same,inhibition at 5 µg/mL,"[2]; dose 5 μg/ml, adding 5% of coffee extract, read-out: Inhibiting rate (%)",43.6%
same,inhibition at 5 µg/mL,"[2]; dose 5 μg/ml, non-adding coffee extract, read-out: Inhibiting rate (%)",37.7%
same,inhibition at 10 µg/mL,"[2]; dose 10 μg/ml, adding 5% of coffee extract, read-out: Inhibiting rate (%)",87.9%
same,inhibition at 10 µg/mL,"[2]; dose 10 μg/ml, non-adding coffee extract, read-out: Inhibiting rate (%)",84%
same,inhibition at 50 µg/mL,"[2]; dose 50 μg/ml, adding 5% of coffee extract, read-out: Inhibiting rate (%)",100%
same,inhibition at 50 µg/mL,"[2]; dose 50 μg/ml, non-adding coffee extract, read-out: Inhibiting rate (%)",100%
same,inhibition at 100 µg/mL,"[2]; dose 100 μg/ml, adding 5% of coffee extract, read-out: Inhibiting rate (%)",100%
same,inhibition at 100 µg/mL,"[2]; dose 100 μg/ml, non-adding coffee extract, read-out: Inhibiting rate (%)",100%
same,inhibition at 300 µg/mL,"[2]; dose 300 μg/ml, adding 5% of coffee extract, read-out: Inhibiting rate (%)",100%
same,inhibition at 300 µg/mL,"[2]; dose 300 μg/ml, non-adding coffee extract, read-out: Inhibiting rate (%)",100%
same,inhibition at 1000 µg/mL,"[2]; dose 1000 μg/ml, adding 5% of coffee extract, read-out: Inhibiting rate (%)",100%
same,inhibition at 1000 µg/mL,"[2]; dose 1000 μg/ml, non-adding coffee extract, read-out: Inhibiting rate (%)",100%
same,IC50,"[2]; non-adding coffee extract, calculated by figure",7 µg/mL
same,inhibition at 100 µg/mL,[2]; [4],100%
same,inhibition at 100 µg/mL,[2]; [5],100%
same,Histamine releasing rate (%),[2]; [6],70.5%
same,Histamine releasing rate (%),"[2]; dose 2 μg/ml, non-adding coffee extract",76.2%
same,Histamine releasing rate (%),[2]; [7],55.3%
same,Histamine releasing rate (%),"[2]; dose 5 μg/ml, non-adding coffee extract",60.1%
same,Histamine releasing rate (%),[2]; [8],19.3%
same,Histamine releasing rate (%),"[2]; dose 10 μg/ml, non-adding coffee extract",22.5%
same,Histamine releasing rate (%),[2]; [9],9.1%
same,Histamine releasing rate (%),"[2]; dose 50 μg/ml, non-adding coffee extract",9.1%
same,Histamine releasing rate (%),[2]; [10],9.3%
same,Histamine releasing rate (%),"[2]; dose 100 μg/ml, non-adding coffee extract",9.3%
same,Histamine releasing rate (%),[2]; [11],9.4%
same,Histamine releasing rate (%),"[2]; dose 300 μg/ml, non-adding coffee extract",9.4%
same,Histamine releasing rate (%),[2]; [12],9.4%
same,Histamine releasing rate (%),"[2]; dose 1000 μg/ml, non-adding coffee extract",9.4%
same,change in vivo at 1800 mg,[1],330%
"CC1(C)[C@@H](O[C@H]2O[C@H](C(=O)[O-])[C@@H](O)[C@H](O)[C@H]2O[C@@H]2O[C@H](C(=O)[O-])[C@@H](O)[C@H](O)[C@H]2O)CC[C@]2(C)[C@H]3C(=O)C=C4[C@@H]5C[C@@](C)(C(=O)[O-])CC[C@]5(C)CC[C@@]4(C)[C@]3(C)CC[C@@H]12.[Na+].[Na+].[Na+] [Trisodium glycyrrhizinate, reference compound]",IC50 value (concentration for inhibiting rate of 50%),[2]; [3],200 µg/mL
same,Histamine releasing rate (%),[2]; [6],90.1%
same,Inhibiting rate (%),[2]; [6],0.8%
same,Histamine releasing rate (%),[2]; [7],89.5%
same,Inhibiting rate (%),[2]; [7],1.6%
same,Histamine releasing rate (%),[2]; [8],88.1%
same,Inhibiting rate (%),[2]; [8],3.3%
same,Inhibiting rate (%),[2]; [9],17.8%
same,Histamine releasing rate (%),[2]; [10],65.5%
same,Inhibiting rate (%),[2]; [10],31.1%
same,Histamine releasing rate (%),[2]; [11],32.7%
same,Inhibiting rate (%),[2]; [11],70.5%
same,Histamine releasing rate (%),[2]; [12],9.2%
same,Inhibiting rate (%),[2]; [12],100%
same,inhibiting rate (%) (adding 5% of coffee extract),[2]; [13],48.3%
same,Inhibiting rate (%) (non adding coffee extract),[2]; [14],30.9%
CC(=O)O [acetic acid],inhibition at 100 µg/mL,[2]; [4],100%
same,inhibition at 100 µg/mL,[2]; [5],100%
same,change in vivo at 1800 mg,[1],307%
O=C(O)C=C(CC(=O)O)C(=O)O [aconitic acid],inhibition at 100 µg/mL,[2]; [4],40%
same,inhibition at 100 µg/mL,[2]; [5],100%
same,change in vivo at 1800 mg,[1],315%
O=C([O-])CC(O)(CC(=O)O)C(=O)[O-].[K+].[K+] [dipotassium hydrogen citrate],inhibiting rate (%) (adding 5% of coffee extract),[2]; [13],48.7%
same,Inhibiting rate (%) (non adding coffee extract),[2]; [14],40.0%
O=C([O-])CC(O)(CC(=O)[O-])C(=O)O.[Na+].[Na+] [disodium hydrogen citrate],inhibiting rate (%) (adding 5% of coffee extract),[2]; [13],49.4%
same,Inhibiting rate (%) (non adding coffee extract),[2]; [14],39.1%
O=C1O[C@H](CO)[C@@H](O)[C@H](O)[C@H]1O [gluconolactone],inhibition at 100 µg/mL,[2]; [4],100%
same,inhibition at 100 µg/mL,[2]; [5],100%
same,change in vivo at 1800 mg,[1],290%
O=C(O)CCC(=O)C(=O)O [keto-glutaric acid],inhibiting rate (%) (adding 5% of coffee extract),[2]; [13],100%
same,Inhibiting rate (%) (non adding coffee extract),[2]; [14],100%
same,Increase rate (%) of memory ability,[1],321%
O=C(O)CC(=O)C(=O)O [oxalacetic acid],inhibition at 100 µg/mL,[2]; [4],100%
same,inhibition at 100 µg/mL,[2]; [5],100%
same,change in vivo at 1800 mg,[1],310%
O=C([O-])CC(O)(CC(=O)O)C(=O)O.[K+] [potassium dihydrogen citrate],inhibiting rate (%) (adding 5% of coffee extract),[2]; [13],100%
same,Inhibiting rate (%) (non adding coffee extract),[2]; [14],100%
O=C([O-])/C=C/C(=O)O.[K+] [potassium hydrogen fumate],inhibiting rate (%) (adding 5% of coffee extract),[2]; [13],100%
same,Inhibiting rate (%) (non adding coffee extract),[2]; [14],100%
O=C(O)CC(O)C(=O)O.[K] (centres unmarked) [potassium hydrogen malate],inhibiting rate (%) (adding 5% of coffee extract),[2]; [13],100%
same,Inhibiting rate (%) (non adding coffee extract),[2]; [14],100%
O=C([O-])/C=C\C(=O)O.[K+] [potassium hydrogen maleate],inhibiting rate (%) (adding 5% of coffee extract),[2]; [13],100%
same,Inhibiting rate (%) (non adding coffee extract),[2]; [14],100%
O=C([O-])CCC(=O)O.[K+] [potassium hydrogen succinate],inhibiting rate (%) (adding 5% of coffee extract),[2]; [13],100%
same,Inhibiting rate (%) (non adding coffee extract),[2]; [14],100%
O=C([O-])C(O)C(O)C(=O)O.[K+] (centres unmarked) [potassium hydrogen tartrate],inhibiting rate (%) (adding 5% of coffee extract),[2]; [13],100%
same,Inhibiting rate (%) (non adding coffee extract),[2]; [14],100%
CCC(=O)O [propionic acid],inhibition at 100 µg/mL,[2]; [4],100%
same,inhibition at 100 µg/mL,[2]; [5],100%
same,change in vivo at 1800 mg,[1],296%
O=C(O)CC(O)(CC(=O)O)C(=O)[O-].[Na+] [sodium dihydrogen citrate],inhibiting rate (%) (adding 5% of coffee extract),[2]; [13],100%
same,Inhibiting rate (%) (non adding coffee extract),[2]; [14],100%
O=C([O-])/C=C/C(=O)O.[Na+] [sodium hydrogen fumate],inhibiting rate (%) (adding 5% of coffee extract),[2]; [13],100%
same,Inhibiting rate (%) (non adding coffee extract),[2]; [14],100%
O=C([O-])CC(O)C(=O)O.[Na+] (centres unmarked) [sodium hydrogen malate],inhibiting rate (%) (adding 5% of coffee extract),[2]; [13],100%
same,Inhibiting rate (%) (non adding coffee extract),[2]; [14],100%
O=C([O-])/C=C\C(=O)O.[Na+] [sodium hydrogen maleate],inhibiting rate (%) (adding 5% of coffee extract),[2]; [13],100%
same,Inhibiting rate (%) (non adding coffee extract),[2]; [14],100%
O=C([O-])CCC(=O)O.[Na+] [sodium hydrogen succinate],inhibiting rate (%) (adding 5% of coffee extract),[2]; [13],100%
same,Inhibiting rate (%) (non adding coffee extract),[2]; [14],100%
O=C([O-])C(O)C(O)C(=O)O.[Na+] (centres unmarked) [sodium hydrogen tartrate],inhibiting rate (%) (adding 5% of coffee extract),[2]; [13],100%
same,Inhibiting rate (%) (non adding coffee extract),[2]; [14],100%
Diphenhydramine citrate [reference compound],inhibiting rate (%) (adding 5% of coffee extract),[2]; [13],55.5%
same,Inhibiting rate (%) (non adding coffee extract),[2]; [14],37.5%

# Source: patent US20080286388A1, “Pharmaceutical Composition and Non Dependence Coffee Comprising Edible Carboxylic Acid and/or Its Acid Salts and Coffeine” (priority 2004, published 2008)
